Assay: xn = mol fraction of the nth substance listed
Settings: 101 kPa, Liquid, Pycnometric method

OCCCCCCO [1,6-hexanediol] + O
mass density [kg/m3]
Settings | 283.15 K | 288.15 K | 293.15 K | 298.15 K | 303.15 K | 308.15 K
x1 = 0.0009 | 999.67 | 999.02 | 998.12 | 996.93 | 995.54 | 993.92
x1 = 0.0019 | 999.65 | 998.96 | 998.04 | 996.83 | 995.42 | 993.78
x1 = 0.0037 | 999.63 | 998.86 | 997.92 | 996.68 | 995.24 | 993.57
x1 = 0.0054 | 999.64 | 998.8 | 997.84 | 996.58 | 995.11 | 993.41
x1 = 0.0074 | 999.66 | 998.78 | 997.78 | 996.49 | 994.99 | 993.24
x1 = 0.009 | 999.68 | 998.78 | 997.76 | 996.43 | 994.89 | 993.11
x1 = 0.0107 | 999.71 | 998.8 | 997.72 | 996.38 | 994.79 | 992.99
x1 = 0.0125 | 999.76 | 998.83 | 997.7 | 996.32 | 994.69 | 992.87
x1 = 0.0145 | 999.83 | 998.88 | 997.68 | 996.26 | 994.59 | 992.74
x1 = 0.0159 | 999.88 | 998.92 | 997.67 | 996.23 | 994.52 | 992.65
x1 = 0.0177 | 999.96 | 998.98 | 997.66 | 996.18 | 994.43 | 992.54
x1 = 0.0349 | 1000.78 | 999.42 | 997.56 | 995.67 | 993.61 | 991.57
x1 = 0.0514 | 1001.11 | 999.3 | 997.34 | 995.07 | 992.8 | 990.58
x1 = 0.0694 | 1001.08 | 998.88 | 996.87 | 994.3 | 991.84 | 989.39
x1 = 0.0983 | 1000.63 | 997.95 | 995.62 | 992.81 | 990.14 | 987.3
x1 = 0.112 | 1000.09 | 997.54 | 994.84 | 992.04 | 989.26 | 986.33

CC(O)CCC(C)O (centres undefined) [2,5-hexanediol] + O
mass density [kg/m3]
Settings | 283.15 K | 288.15 K | 293.15 K | 298.15 K | 303.15 K | 308.15 K
x1 = 0.0008 | 999.67 | 999.06 | 998.13 | 996.94 | 995.52 | 993.87
x1 = 0.002 | 999.6 | 998.98 | 998.04 | 996.84 | 995.4 | 993.73
x1 = 0.0037 | 999.53 | 998.88 | 997.94 | 996.73 | 995.27 | 993.58
x1 = 0.0073 | 999.48 | 998.82 | 997.86 | 996.6 | 995.14 | 993.42
x1 = 0.009 | 999.54 | 998.85 | 997.84 | 996.58 | 995.09 | 993.35
x1 = 0.0102 | 999.61 | 998.88 | 997.84 | 996.58 | 995.07 | 993.31
x1 = 0.0123 | 999.75 | 998.97 | 997.89 | 996.6 | 995.05 | 993.25
x1 = 0.0142 | 999.92 | 999.08 | 997.96 | 996.64 | 995.05 | 993.21
x1 = 0.0159 | 1000.08 | 999.2 | 998.04 | 996.68 | 995.06 | 993.19
x1 = 0.0177 | 1000.27 | 999.34 | 998.14 | 996.74 | 995.07 | 993.17
x1 = 0.0263 | 1001.32 | 1000.14 | 998.73 | 997.13 | 995.23 | 993.17
x1 = 0.0353 | 1002.49 | 1001.07 | 999.39 | 997.56 | 995.43 | 993.19
x1 = 0.0516 | 1004.41 | 1002.55 | 1000.35 | 998.09 | 995.59 | 993
x1 = 0.0672 | 1005.71 | 1003.37 | 1000.75 | 998.16 | 995.35 | 992.44
x1 = 0.0688 | 1005.83 | 1003.42 | 1000.76 | 998.14 | 995.31 | 992.36
x1 = 0.0821 | 1006.35 | 1003.53 | 1000.63 | 997.8 | 994.75 | 991.62
x1 = 0.098 | 1006.33 | 1003.14 | 1000.02 | 996.97 | 993.8 | 990.55
x1 = 0.112 | 1005.71 | 1002.53 | 999.19 | 996.16 | 992.78 | 989.51
